For the experiment, the target named is OTU domain-containing protein 3 (Homo sapiens) (UniProt Q5T2D3). The experiment in a line: Validation of screening hits, potency titration, in vitro enzymatic, OTU domain-containing protein 3 DUB inhibitors (AID 1645868). The settings on record: purified OTUD3, ubiquitin-rhodamine cleavage fluorescence, 2 h.

The source made the active and inactive calls.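 The calls were made as follows: active = maximal percent inhibition of the deubiquitinase OTUD3 of at least 30% across the tested doses; inactive = the rest.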

Chain of OTU domain-containing protein 3 (Homo sapiens) (Q5T2D3 whole entry, looked up, the tested form may be a part): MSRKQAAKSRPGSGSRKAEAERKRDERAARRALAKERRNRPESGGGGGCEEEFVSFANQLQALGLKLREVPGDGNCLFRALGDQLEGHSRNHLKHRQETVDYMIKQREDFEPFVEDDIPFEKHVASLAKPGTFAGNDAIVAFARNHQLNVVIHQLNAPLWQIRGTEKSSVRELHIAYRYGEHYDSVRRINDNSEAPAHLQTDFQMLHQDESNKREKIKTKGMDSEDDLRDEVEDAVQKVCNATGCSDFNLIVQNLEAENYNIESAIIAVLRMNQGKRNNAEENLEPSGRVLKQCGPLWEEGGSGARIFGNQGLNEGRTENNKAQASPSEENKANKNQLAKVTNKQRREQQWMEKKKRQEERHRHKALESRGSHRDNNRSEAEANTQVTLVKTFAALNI

Take `COCCCNC(=O)c1ccc(Cn2c(=O)c3ccccc3n(CC(=O)NC3CCCCC3)c2=O)cc1`: the IC50 (usually the midpoint of a concentration-inhibition curve) is 32.3 µM. Under `Cc1ccc(C2c3cccn3CCN2C(=O)Nc2ccccc2)cc1` (stereo unspecified) stands > 50 µM (inactive). With `O=C(CSc1ccc(-c2cccc([N+](=O)[O-])c2)nn1)Nc1cccc(F)c1` the figure was 25.2 µM; with `Cc1cccc(N2CCN(C(=O)c3nnn(-c4ccc(F)cc4)n3)CC2)c1`, > 50 µM (inactive). Under `COc1ccc(OC)c(NC(=O)c2ccc(-n3nnnc3SC)cc2)c1` stands > 50 µM (inactive); under `CCC1(C)Cc2c(sc3nc(SCC(=O)Nc4ccc(C(C)=O)cc4)nc(N)c23)CO1` (stereo unspecified), 32.4 µM; under `CCOc1ccccc1C(=O)Oc1ccc2c(C)cc(=O)oc2c1`, 32.4 µM. On to `COc1ccc(/C=C\c2nccc3c2[nH]c2ccccc23)cc1`, for which the IC50 is > 50 µM (inactive). With `COc1ccc(S(=O)(=O)N(C)Cc2cccs2)cc1OC` the figure was > 50 µM (inactive); with `O=C(Nc1ccc2c(c1)OCO2)c1[nH]nc2c1CCc1ccccc1-2`, > 50 µM (inactive). With `COc1ccc(C2CC(c3ccccc3)N(C(=O)C3CC3)c3ncnn32)cc1` (stereo unspecified), the IC50 was > 50 µM (inactive). Under `CCOC(=O)C1CCN(C(=O)c2ccc3c(c2)NC(=O)C2CCCN32)CC1` (stereo unspecified) stands > 50 µM (inactive); under `Cc1ccc2c(c1)[C@]1(C(=O)N2)[C@@H]2C(=O)N(c3cccc(C(F)(F)F)c3)C(=O)[C@@H]2C2CCCN21` (stereo partly specified), > 50 µM (inactive); under `Cc1cccc(-n2ccnc(SCC(=O)Nc3ccc(Cl)cc3F)c2=O)c1`, 27.7 µM.

Turning to `CCN1C(=O)COc2ccc(NC(=O)c3ccc(OCc4nonc4C)cc3)cc21`, the IC50 was > 50 µM (inactive).

On to `COc1ccc(NC2c3ccccc3C(=O)N2c2ccccn2)cc1` (stereo unspecified), for which the IC50 is > 50 µM (inactive). Under `Cc1ccccc1Cn1ccc2ccn(Cc3cccnc3)c2c1=O` stands > 50 µM (inactive); under `O=C(Cn1c(=O)n(Cc2ccc(F)cc2)c(=O)c2ncccc21)Nc1ccccc1`, > 50 µM (inactive); under `CC1CCCN(S(=O)(=O)c2cc3cc(F)ccc3oc2=O)C1` (stereo unspecified), > 50 µM (inactive).

Take `COc1ccc(CCNC(=O)c2noc3c2CCc2sccc2-3)cc1OC`: the IC50 is > 50 µM (inactive). With `CNC(=O)C1CN(C(=O)c2ccc(OC)cc2)CC12CCCC2` (stereo unspecified) the figure was > 50 µM (inactive).

`CSc1nc2ncc3c(=O)n(CCc4ccccc4)ccc3n2n1`: the IC50 was > 50 µM (inactive). Take `O=C(CCc1c[nH]c2ccccc12)Nc1ccc(N2CCOCC2)cc1`: the half-maximal inhibitory concentration (IC50) was 30.9 µM.

Regarding `Cc1ccc2cccc(OCc3nnc(SCC(=O)c4ccc(Cl)cc4)n3C)c2n1`, the half-maximal inhibitory concentration (IC50) is 25.8 µM. Turning to `O=C(CN1CCCCC1)Nc1nnc(-c2ccc([N+](=O)[O-])cc2)s1`, the concentration for half-maximal inhibition (IC50) is 18.9 µM. With `COc1cccc(N2C(=O)N(CC(=O)NCc3ccc(Cl)cc3)c3ccccc3S2(=O)=O)c1` the figure was 20 µM. With `O=C(NCc1ccc(Cl)cc1)c1ccc(N2CCCS2(=O)=O)cc1` the figure was > 50 µM (inactive); with `O=C(COc1ccc2c(c1)CCC2)Nc1ccc2c(c1)CCC2`, > 50 µM (inactive); with `CN(C)S(=O)(=O)c1ccc(C(=O)Nc2c(C#N)oc3ccccc23)cc1`, > 50 µM (inactive). With `CC(=O)Nc1ccc(S(=O)(=O)NCc2ccc(C(=O)NCc3ccc(C)cc3)cc2)cc1` the figure was 25.2 µM; with `O=C(NCc1cccnc1)c1cnn2c(C(F)(F)F)cc(-c3ccccc3)nc12`, > 50 µM (inactive). Turning to `O=C(O)Cc1ccc(Nc2nc3ccccc3n3nnnc23)cc1`, the IC50 is > 50 µM (inactive).

`O=C(CCC1CCCCC1)Nc1ccccc1C(=O)N1CCOCC1`: the IC50 is > 50 µM (inactive). In the case of `Cc1cc(NCC2CC2)n2nc(Nc3cc(Cl)ccc3C)nc2n1`, the IC50 is > 50 µM (inactive). Under `CCCCCn1c(Sc2ccc(C)cc2)nc2c1c(=O)[nH]c(=O)n2C` stands 35.1 µM; under `O=C(NCc1ccc(F)cc1)N1CCC2(C1)Nc1cccnc1NC2=NCc1ccccc1` (stereo unspecified), > 50 µM (inactive). As to `O=C(CSc1nnc(-c2ccc3c(c2)OCO3)n1-c1ccccc1)OCC(=O)c1ccccc1`, the IC50 is > 50 µM (inactive). With `CCN(CC)C(=O)c1sc(NC(=O)/C=C/c2c(F)cccc2Cl)c(C#N)c1C` the figure was > 50 µM (inactive); with `Cc1nc(Nc2ncc(C)s2)cc(C2CN(C(=O)Cc3ccccc3)CCO2)n1` (stereo unspecified), > 50 µM (inactive); with `c1ccc(CN2CCN(c3nc4ccccc4n4nnnc34)CC2)cc1`, > 50 µM (inactive). Under `CC1(C)CC(=O)C2=C(C1)Nc1ccccc1N(C(=O)C(F)(F)F)C2c1cccs1` (stereo unspecified) stands > 50 µM (inactive); under `CC(C)(C)n1ncc2c(=O)n(Cc3cccc([N+](=O)[O-])c3)cnc21`, > 50 µM (inactive). Under `Cc1ccccc1C(=O)OCCN1C(=O)c2cccc3c(N4CCCCC4)ccc(c23)C1=O` stands > 50 µM (inactive). As to `Nc1nc(-c2ccc[nH]2)cs1`, the IC50 was > 50 µM (inactive). For `O=C(Nc1ccc2sccc2c1)c1ccc(F)cc1`, the IC50 was > 50 µM (inactive). Under `COc1cc(NC(=O)c2ccc3c(c2)OCO3)ccc1-c1cc2ccccc2oc1=O` stands > 50 µM (inactive). Under `COc1ccc(C(=O)CSc2nnc(-c3cc4cccc(OC)c4o3)n2C)cc1OC` stands > 50 µM (inactive); under `Cc1ccc(Cn2nnc(C(=O)NCc3ccco3)c2-n2cccc2)cc1`, > 50 µM (inactive).

Turning to `O=C(O)C1CCN(Cc2c(-c3ccco3)nc3ccc(Cl)cn23)CC1`, the IC50 is > 50 µM (inactive). As for `COc1ccc(S(=O)(=O)Nc2ccc(Nc3ccc(-n4cccn4)nn3)cc2)cc1`, the IC50 was > 50 µM (inactive). With `Cc1cc(C)nc(-n2nc(C)c3c2NC(=O)CSC3c2ccc(F)cc2F)n1` (stereo unspecified) the figure was 47.2 µM. Under `O=C(CCn1c(=O)c2ccccc2n(Cc2cc(=O)n3ccccc3n2)c1=O)NCCc1ccc(Cl)cc1` stands 30.6 µM; under `CN(C(=O)CSc1nnc(-c2cc3ccccc3n2C)o1)c1ccccc1`, > 50 µM (inactive); under `COc1cc2c(cc1OC)-c1cc(NCc3cc(OC)c(OC)c(OC)c3)nc(=O)n1CC2`, > 50 µM (inactive). With `Cc1cccc(-n2cnc(C(=O)NCc3ccc(F)cc3)c2)n1` the figure was > 50 µM (inactive); with `COc1ccc(C2SCC(=O)Nc3c2c(=O)[nH]n3C2CCCCC2)cc1` (stereo unspecified), 23.3 µM; with `COC(=O)c1cc(C#N)c(NCc2ccccc2)nc1C`, > 50 µM (inactive). In the case of `COc1ccc(C(C)NC(=O)c2cnc(-c3ccccc3)nc2-c2ccncc2)cc1` (stereo unspecified), the IC50 was > 50 µM (inactive). Under `COc1ccc(-c2[nH]c3ccccc3c2SCCNC(=O)c2ccc(S(=O)(=O)N3CCOCC3)cc2)cc1` stands > 50 µM (inactive); under `Cc1nc(-c2noc3ccc(C(=O)Nc4cccnc4)cc23)cs1`, 42.4 µM; under `Cn1c(=O)cc(SCC(=O)NC2CCN(Cc3ccccc3)CC2)c2ccc(Cl)cc21`, > 50 µM (inactive).

Regarding `O=C(NCc1ccc(-c2nc3cnccc3o2)cc1)c1cc2ccccc2o1`, the IC50 is > 50 µM (inactive). With `COc1cc2c(=O)n(CCC(=O)NCc3ccco3)c(=O)n(CC(=O)Nc3c(C)cccc3C)c2cc1OC`, the IC50 is > 50 µM (inactive). With `COc1ccccc1CNC(=O)c1ccccc1OCc1ccccc1Cl` the figure was > 50 µM (inactive); with `Cc1ccccc1N1C(=O)/C(=C\c2cccn2C)c2ccccc2C1=O`, > 50 µM (inactive); with `CCN(c1ccccc1)S(=O)(=O)c1ccc(C(=O)Nc2nc3ccc(F)cc3s2)cc1`, > 50 µM (inactive). With `O=C(Nc1cccc2ccccc12)N1CCC(c2nc3c(nnn3Cc3ccc(F)cc3)c(=O)[nH]2)CC1` the figure was > 50 µM (inactive); with `COC(=O)c1sc2ccccc2c1NC(=O)c1ccc(Br)s1`, 21.2 µM. Under `CCc1cccc2c(C(=O)COc3ccc(C#N)cc3)c[nH]c12` stands 47.3 µM. As for `Cc1cc(C(F)(F)F)n(-c2ccc(NC(=O)Nc3cccc(C(F)(F)F)c3)cc2)n1`, the half-inhibitory concentration (IC50) was 11.4 µM. As to `COc1cc(Cn2cnc3c([nH]c4ccc(Br)cc43)c2=O)cc(OC)c1`, the IC50 is 12.7 µM.

As to `COc1ccc(NC(=O)Nc2cccc(-c3nnc(-c4ccccc4)o3)c2)cc1OC`, the IC50 was 39.3 µM.

Consider `COc1cc(-c2ccno2)ccc1S(=O)(=O)Nc1ccccc1Cl`, for which the IC50 is > 50 µM (inactive).

For the molecule `COCCN(C1CCN(CCc2ccc(Cl)cc2)CC1)S(=O)(=O)c1cccc2cccnc12`, the IC50 was > 50 µM (inactive). Take `CN1CCN(C(=O)c2cc(-c3ccn(-c4ccccc4)n3)n3ccccc23)CC1`: the IC50 is > 50 µM (inactive).

With `COc1cccc(NC(=O)C2C3C=CC4(O3)C2C(=O)N(CCc2ccccc2Cl)C4C(=O)NC2CCCCC2)c1` (stereo unspecified), the half-inhibitory concentration (IC50) was 29.7 µM. Take `O=C(Cc1nnc2c(-c3nc(C4CC4)no3)cccn12)Nc1ccccc1`: the 50% inhibitory concentration (IC50) was 22.8 µM. With `CCOc1ccc(NS(=O)(=O)c2ccc(NC(=O)Nc3ccccc3)cc2)cc1` the figure was 37.2 µM. In the case of `Cc1cc(C(=O)N2CCN(C3CCN(Cc4ccc(Cl)o4)CC3)C(=O)C2)c(C)o1`, the IC50 is > 50 µM (inactive). With `Cc1ccc(-n2c(=O)[nH]c3c(C(N)=O)nc(-c4cccnc4)nc32)cc1` the figure was 30.8 µM; with `CC(=O)Nc1cccc(NC(=O)COc2cccc3ccc(N4CCCC4)nc23)c1`, > 50 µM (inactive). With `C[C@@H](C(=O)NCc1ccc(F)cc1)N1C(=O)N2CCc3c([nH]c4ccccc34)[C@@]2(C)C1=O` the figure was 24.1 µM. Under `CC(C)CC(=O)Nc1cc(F)c2nc(N3CCOCC3)ccc2c1` stands > 50 µM (inactive); under `COC1=C(C2=C(OC)C(=O)c3cc4c(c(O)c3C2=O)C(=O)OC(C)C4)C(=O)c2c(cc3c(c2O)C(=O)OC(C)C3)C1=O` (stereo unspecified), 3.28 µM. `Cn1c(SCCOc2ccc(Cl)cc2)nnc1-c1ccc2c(c1)OCCO2`: the IC50 was > 50 µM (inactive).

On to `O=C(CCCn1c(=O)[nH]c2cc(Cl)ccc2c1=O)N1CCc2ccccc2C1`, for which the concentration for half-maximal inhibition (IC50) was 29 µM.

The values above are taken from PubChem BioAssay AID1645868 (Buhrlage Lab, Dana-Farber Cancer Institute and Novartis …, 2021).
